One series concerns MRSP E104. Put plainly: High-throughput growth curves (BioScreen). In kind it is cell-based, Staphylococcus pseudintermedius. Conditions: growth curve analysis. The procedure: The effects of B1 on the growth of a reference MRSP strain (ST71, E104) were evaluated using BioScreen (Oy Growth Curves Ab LTd, Finland). A well characterized antimicrobial peptide, Nisin, was used as a positive control. […] The OD600 of each micro-culture was measured and recorded every 15 min after a 5 second pause of shaking in automatic mode. The recorded ODs were plotted against time to prepare the growth curves. The assay was performed with technical and biological replicates, and one representative result was presented.

The subject of series [1] is DNA synthesis in MRSP E104. The series is described as follows: Macromolecule biosynthesis rate, DNA (3H-Thymidine). In kind it is cell-based, Staphylococcus pseudintermedius. Conditions: MRSP E104, 1.25 µg/ml, 20 min. On the procedure:
(§1) Macromolecule biosynthesis rate was measured in MRSP E104 following a protocol adapted from Ling et al.[65]. Briefly, E104 overnight culture was sub-cultured 1:100 in MHB II and grown up to OD 0.2 at 600 nm. Cells were pelleted down by centrifugation and resuspended in fresh medium followed by incubation for 20 min with B1 or nisin at 1.5 µg/ml and 1.25 µg/ml, respectively, and radiolabeled precursor: (50µCi) 3H-Thymidine (PerkinElmer) and (5µCi) 3H-glucosamine hydrochloride per ml for DNA and cell wall, respectively. A positive control without antimicrobial was maintained. After incubation, samples were precipitated with equal volume of cold 30% TCA (Sigma) on ice. Precipitates were filtered on a membrane filter and subsequently subjected to two washes of cold 15% TCA and two washes of cold water using vacuum manifold. Subsequently, filters were air dried overnight and then transferred to 10 ml scintillation vials. Finally, scintillation fluid (3 ml) was added to each vial and ^3H count was taken in Beckman Coulter LS6500 liquid scintillation counter for one minute. The radioactive counts of the control samples were considered to have 100% precursor incorporation and macromolecule synthesis. The percentage rates of the antimicrobial-exposed samples were calculated accordingly. Each experiment was performed with replicates and the average rates of incorporation were plotted.

Series [2] relates to membrane potential of MRSP E104. Put plainly: DiSC3(5) fluorescence-based membrane potential study. In kind it is cell-based, Staphylococcus pseudintermedius. Conditions: MRSP E104, nisin treatment. The procedure: Freshly sub-cultured E104 cells were labelled with 1 µM 3,3-Dipropylthiadicarbocyanine iodide [DiSC3(5)] (Sigma) in MHB II. The fluorescence spectra of labelled cells were plotted in the LS50B luminescence spectrometer (PerkinElmer) at excitation/emission wavelengths 546 nm/573 nm using time drive application of FLWINLAB software. After reading an initial stable emission spectra of DiSC3(5), labelled cells were treated with B1 or nisin or protonophore CCCP at 1, 1.5 and 1.25 µg/ml, respectively and the change of fluorescence over time was recorded. The increment of DiSC3(5) fluorescence upon addition of antimicrobials or CCCP (FUafter-treatment – FUbefore-treatment) was plotted. This experiment was performed twice and each time with two technical replicates.

For series [3], the system named is cell wall synthesis in MRSP E104. Put plainly: Macromolecule biosynthesis rate, cell wall (3H-glucosamine). As to conditions: MRSP E104, 1.25 µg/ml, 20 min. In kind it is cell-based, Staphylococcus pseudintermedius. On the procedure: as §1
The format of series [4] is cell-based, human. Conditions: human. On the procedure:
(§2) Briefly, two-fold serial dilutions (2.35 to 150 μM) of compounds in phosphate buffer saline (PBS) were mixed with equal volume of 0.5% v/v suspension of fresh human red blood cells (RBC) in the same buffer. After 1 h incubation at 37 °C, plates were centrifuged and aliquots of the supernatants were transferred to clear 96-well plates. Absorbance at 414 nm was measured and normalized using a negative (PBS, 0%) and a positive (melittin, 100%) control. The EC10 and EC50 are concentrations at which 10% and 50% of RBC were lysed, respectively, as interpolated graphically by the y-axis intersection of the plotted data.

The next series relates to human red blood cells. In kind it is cell-based. Conditions: for EC50: red cells of human, 1 h. The procedure:
as §2

Another series has as its system MSSA (ATCC 29213). In kind it is cell-based, Staphylococcus aureus. Conditions: ATCC 29213, 18 h. On the procedure:
(§3) Activity of B1 was tested on 50P. aeruginosa isolates and 57S. pseudintermedius isolates (including 7 MRSP) that had been isolated in the diagnostic laboratory Sund Vet Diagnostik (University of Copenhagen) from various infections in dogs between 2009 and 2011. Representative MRSP (C22963), MSSA, and P. aeruginosa (26314) were used for testing the first set of B1 analogues.
(§4) MIC determination was performed by broth microdilution according to the Clinical and Laboratory Standard Institute (CLSI, M31-A3, 2008)[62]. In brief, each bacterial strain was diluted to concentration of 5 × 10^5 CFU/mL in Mueller Hinton broth II (MHB II) media (Oxoid) and added to a two-fold serial dilution of peptides and peptide-peptoid hybrids concentrations ranging from 1 to 64 µg/ml in 96-well plates (Nunc Internationals, Rochester, NY). The MICs were determined as a lowest concentration showing no visible growth after incubation for 18 hours at 37 °C. Experiments were performed in triplicates on two different days.

The test system of another series is MRSP C22963. In kind it is cell-based, Staphylococcus pseudintermedius. Conditions: 18 h. The procedure: as §3, §4
For the next series, the system named is P. aeruginosa (26314). In kind it is cell-based, Pseudomonas aeruginosa. Conditions: 26314, 18 h. The procedure:
Activity of B1 was tested on […]. aeruginosa isolates and […]. pseudintermedius isolates (including 7 MRSP) that had been isolated in the diagnostic laboratory Sund Vet Diagnostik (University of Copenhagen) from various infections in dogs between 2009 and 2011. Representative […], and P. aeruginosa (26314) were used for testing the first set of B1 analogues. For antibacterial spectrum the following strains were used: Corynebacterium auriscanis, 31551, (54 C6, dog, ear, 2013); Enterococcus faecalis, 27404, (17 C7, dog, wound, 2011); Enterococcus faecium, 30951, (24 C1, dog, ear, 2013); Streptococcus canis, 26740-1, (14 H1, dog, ear, 2010); Staphylococcus aureus, 27266, (16 G9, dog, skin, 2010); Staphylococcus aureus, 27266, (16 G9, dog, skin, 2010); Staphylococcus pseudintermedius 22963, (3 B9, dog, 2007). Acinetobacter baumannii, 27065, (16 D1, dog, wound, 2010); E. coli, 30235, 23 A6, dog, wound, 2012; Klebsiella pneumoniae, 26233, (11 H5, dog, wound, 2010); Pasteurella canis, 31096, (24 C8, dog, skin, 2013); Proteus mirabilis, 25178, (9 A4, dog, ear, 2009); Pseudomonas aeruginosa 26314, 12 C5, dog, urine, 2010). MIC determination was performed by broth microdilution according to the Clinical and Laboratory Standard Institute (CLSI, […]-A3, 2008)[62]. In brief, each bacterial strain was diluted to concentration of 5 × 10^5 CFU/mL in Mueller Hinton broth II (MHB II) media (Oxoid) and added to a two-fold serial dilution of peptides and peptide-peptoid hybrids concentrations ranging from 1 to 64 μg/ml in 96-well plates (Nunc Internationals, Rochester, NY). The MICs were determined as a lowest concentration showing no visible growth after incubation for 18 hours at 37 °C. Experiments were performed in triplicates on two different days.

Square brackets hold non-standard residues; d marks the D form. Ends that are not written are not given here. Peptide text beside a SMILES is read from it. 1Nal = N[C@@H](Cc1cccc2ccccc12)C(=O)O; 2Nal = N[C@@H](Cc1ccc2ccccc2c1)C(=O)O; d2Nal = N[C@H](Cc1ccc2ccccc2c1)C(=O)O; Nlys = NCCCCNCC(=O)O

Turning to “nisin (ITSISLCTPGCKTGALMGCNMKTATCHCSIHVSK; not fully specified (some residues, bridges); cysteine pairing not given here; also: lantibiotic nisin-A (post-translational modifications not given here); UniProt P13068 24-57, looked up) [well-characterized antimicrobial peptide used as control, reference compound]”, the “MIC concentration (cell lysis) MRSP E104” value against MRSP E104 was 5 µg/mL. The “inhibition of DNA synthesis” value in [1] is reported as 50%. Further, in series [2], the “membrane potential, DiSC3(5) fluorescence emission” value is on record as “no fluorescence increment”. The “inhibition of cell wall synthesis” value in series [3] is 60%.

Turning to `CC(C)C[C@H](NC(=O)CN(CCCCN)C(=O)CN(CCCCN)C(=O)CNCCCCN)C(=O)N[C@@H](Cc1ccc2ccccc2c1)C(=O)N[C@@H](Cc1ccccc1)C(=O)N[C@@H](Cc1ccc2ccccc2c1)C(N)=O` [Compound 29, NLys-NLys-NLys-Leu-(2-Nal)Ala-Phe-(2-Nal)Ala] (H-[Nlys][Nlys][Nlys]L[2Nal]F[2Nal]-NH2; N-terminus assumed), in series [4], the hemolysis at 1 h, 150 µM came to 46%. For the same compound, in the series with human red blood cells, the “Haemolysis EC10” value came out at 9 µM. Moreover, the “Minimum Inhibitory Concentration MSSA (ATCC 29213)” value in the series on MSSA (ATCC 29213) fell in the range of 16 to 32 µg/mL. Further, in the series with MRSP C22963, the “Minimum Inhibitory Concentration MRSP C22963” value was 4 to 8 µg/mL. Besides, the “Minimum Inhibitory Concentration P. aeruginosa (26314)” value in the series with P. aeruginosa (26314) stood at 32 µg/mL.

`CC(C)C[C@H](NC(=O)[C@H](CCCCN)NC(=O)[C@@H](N)CCCCN)C(=O)N[C@@H](CCCCN)C(=O)N[C@@H](Cc1cccc2ccccc12)C(=O)N[C@@H](Cc1ccccc1)C(=O)N[C@@H](Cc1cccc2ccccc12)C(N)=O` [Compound 6, Lys-Lys-Leu-Lys-(1-Nal)Ala-Phe-(1-Nal)Ala] (H-KKLK[1Nal]F[1Nal]-NH2; N-terminus assumed) gave a hemolysis at 1 h, 150 µM in series [4] of 96%. For the same compound, in the series with human red blood cells, the “Haemolysis EC10” value was 5 µM and the midpoint of the response, the EC50, lay at 58 µM. Moreover, the “Minimum Inhibitory Concentration MSSA (ATCC 29213)” value in the series with MSSA (ATCC 29213) turned out to be 32 µg/mL. For the same compound, the “Minimum Inhibitory Concentration MRSP C22963” value in the series with MRSP C22963 turned out to be 8 µg/mL. For the same compound, in the series with P. aeruginosa (26314), the “Minimum Inhibitory Concentration P. aeruginosa (26314)” value was found to be 8 µg/mL.

In series [4], `CC(C)C[C@H](NC(=O)[C@H](CCCCN)NC(=O)[C@H](CCCCN)NC(=O)[C@@H](N)CCCCN)C(=O)N[C@@H](Cc1cccc2ccccc12)C(=O)N[C@@H](Cc1ccccc1)C(=O)N[C@@H](Cc1cccc2ccccc12)C(N)=O` [Compound 7, Lys-Lys-Lys-Leu-(1-Nal)Ala-Phe-(1-Nal)Ala] (H-KKKL[1Nal]F[1Nal]-NH2; N-terminus assumed) yielded a hemolysis at 1 h, 150 µM of 55%. In the series on human red blood cells, the “Haemolysis EC10” value stood at 8 µM and the EC50 (in general, the midpoint of the concentration-response curve) stood at 140 µM. The “Minimum Inhibitory Concentration MSSA (ATCC 29213)” value in the series with MSSA (ATCC 29213) turned out to be 16 µg/mL. Moreover, the “Minimum Inhibitory Concentration MRSP C22963” value with MRSP C22963 was determined as 8 µg/mL. Also, the “Minimum Inhibitory Concentration P. aeruginosa (26314)” value in the series with P. aeruginosa (26314) is 16 µg/mL.

Compound `CC(C)C[C@@H](NC(=O)[C@H](CCCCN)NC(=O)[C@@H](N)CCCCN)C(=O)N[C@@H](CCCCN)C(=O)N[C@H](Cc1ccc2ccccc2c1)C(=O)N[C@H](Cc1ccccc1)C(=O)N[C@H](Cc1ccc2ccccc2c1)C(N)=O` [Compound 17, Lys-Lys-leu-Lys-(2-Nal)ala-phe-(2-Nal)ala] (H-KK[dL]K[d2Nal][dF][d2Nal]-NH2; N-terminus assumed) gave a hemolysis at 1 h, 150 µM in series [4] of 40%. The “Haemolysis EC10” value with human red blood cells is reported as 8 µM. Also, the “Minimum Inhibitory Concentration MSSA (ATCC 29213)” value in the series with MSSA (ATCC 29213) came out at 16 µg/mL. For the same compound, the “Minimum Inhibitory Concentration MRSP C22963” value with MRSP C22963 stood at 8 µg/mL. Also, the “Minimum Inhibitory Concentration P. aeruginosa (26314)” value in the series with P. aeruginosa (26314) turned out to be 32 µg/mL.

Source of the values: PMC6403271, “Characterization, mechanism of action and optimization of activity of a novel peptide-peptoid hybrid against bacterial pathogens involved in canine skin infections” (Scientific Reports, 2019).
